Values belong to the compound of their own block, whether it stands above or below them.
How the values were obtained:
[1] = biological target: T1, Human adrenergic α2A receptor (Homo sapiens, UniProt P08913); assay: β-Arrestin GPCR functional assay, adrenergic α2A (Protocol B); type: cell-based; settings: for IC50: β-arrestin, antagonist vs nor-epinephrine EC80; for inhibition at 0.1 µM / inhibition at 0.3 µM / Percentage inhibition, Adrenergic α2A: nor-epinephrine at EC80 (270 nM); for inhibition at 0.1 µM / inhibition at 0.3 µM: read-out: Percentage inhibition, Adrenergic α2A
T1 sequence (P08913 1-465): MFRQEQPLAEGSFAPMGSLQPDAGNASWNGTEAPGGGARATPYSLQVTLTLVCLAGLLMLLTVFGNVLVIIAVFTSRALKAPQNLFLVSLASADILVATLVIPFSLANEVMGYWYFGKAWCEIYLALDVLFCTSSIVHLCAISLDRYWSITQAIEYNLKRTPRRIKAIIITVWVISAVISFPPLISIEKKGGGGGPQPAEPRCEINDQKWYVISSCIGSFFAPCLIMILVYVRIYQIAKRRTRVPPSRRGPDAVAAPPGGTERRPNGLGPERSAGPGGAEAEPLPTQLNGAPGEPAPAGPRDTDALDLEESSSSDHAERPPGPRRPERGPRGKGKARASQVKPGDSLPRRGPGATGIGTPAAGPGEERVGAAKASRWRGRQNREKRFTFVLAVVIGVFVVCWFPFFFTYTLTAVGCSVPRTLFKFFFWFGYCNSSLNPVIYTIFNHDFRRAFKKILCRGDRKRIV
Method: (§1) To evaluate the activity of compounds in β-Arrestin GPCR functional assays, recombinant CHO cell line (DiscoveRX), over expressed with human adrenergic α2A receptor were used. The experiment was done with kit of DiscoveRX as per recommended protocol of the supplier. Cells were harvested from culture flask using cell dissociation solution (CDS) and plated at a density of 12,000 cells/well in CP reagent (supplied with the kit) in a half area 96-well white polystyrene plate. After 24 h incubation at 37° C., compounds at various concentrations in 1% (final) DMSO were charged to the cells for 30 min at 37° C. Active nor-epinephrine (-NE) at its EC80 concentrations (270 nM) were then added to the cells and incubated for another 90 min at 37° C. Detection mix was prepared by mixing of Path Hunter cell assay buffer, Emerald II solution and Galactone star solution in a ratio of 19:5:1 and incubated with the cells for 60 min at RT in the dark. The reading was taken in Envision at luminescence mode. Biochemical assay results are presented as the percent Inhibition in Table B2a, or IC50 values in Table B2b.

[2] = biological target: T2, Human adrenergic α2B receptor (Homo sapiens, UniProt P18089); assay: Radioligand binding, adrenergic α2B (Protocol Group B); parameters: purchased Milipore (Millipore); settings: for Ki: estimated Ki, read-out: Ki α2B; for Percentage inhibition of ligand binding, Adrenergic α2B, 0.1 nM: 0.0001 µM; for Percentage inhibition of ligand binding, Adrenergic α2B (10 nM) / inhibition at 0.01 µM: 10 nM compound; for Percentage inhibition of ligand binding, Adrenergic α2B (10 nM): 0.01 µM; for inhibition at 0.03 µM / Percentage inhibition of ligand binding, Adrenergic α2B (30 nM): 30 nM compound; for inhibition at 0.03 µM: read-out: Percentage inhibition of ligand binding, Adrenergic α2B (30 nM); for inhibition at 0.1 µM: read-out: Percentage inhibition of ligand binding, Adrenergic α2B (0.1 μM); for Percentage inhibition of ligand binding, Adrenergic α2B (30 nM): 0.03 µM; for inhibition at 0.01 µM: read-out: Percentage inhibition of ligand binding, Adrenergic α2B (10 nM)
T2 sequence (P18089 1-450): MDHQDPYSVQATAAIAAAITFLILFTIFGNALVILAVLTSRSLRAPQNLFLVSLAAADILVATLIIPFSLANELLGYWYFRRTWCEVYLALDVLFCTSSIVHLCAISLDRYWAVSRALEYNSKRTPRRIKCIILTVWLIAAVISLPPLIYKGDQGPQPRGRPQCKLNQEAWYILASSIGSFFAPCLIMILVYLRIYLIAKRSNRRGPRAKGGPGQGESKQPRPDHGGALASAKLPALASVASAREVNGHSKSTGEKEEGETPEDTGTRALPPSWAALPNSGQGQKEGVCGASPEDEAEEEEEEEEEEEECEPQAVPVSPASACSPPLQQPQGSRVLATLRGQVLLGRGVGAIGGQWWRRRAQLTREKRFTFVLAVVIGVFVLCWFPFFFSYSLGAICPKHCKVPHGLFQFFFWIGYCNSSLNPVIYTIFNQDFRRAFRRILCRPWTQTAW
Procedure, shortened: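 Compounds at various concentrations in 1% DMSO were tested on recombinant membranes in Tris-HCl pH 7.4 buffer containing MgCl2, CaCl2 and 0.2% BSA.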

[3] = biological target: T3, Human adrenergic α1B receptor (Homo sapiens, UniProt P35368); assay: β-Arrestin GPCR functional assay, adrenergic α1B (Protocol B); type: cell-based; settings: for IC50: β-arrestin, antagonist vs nor-epinephrine EC80; for inhibition at 0.1 µM / inhibition at 0.3 µM / Percentage inhibition, Adrenergic α1B: nor-epinephrine at EC80 (50 nM); for inhibition at 0.1 µM / inhibition at 0.3 µM: read-out: Percentage inhibition, Adrenergic α1B
T3 sequence (P35368 1-520): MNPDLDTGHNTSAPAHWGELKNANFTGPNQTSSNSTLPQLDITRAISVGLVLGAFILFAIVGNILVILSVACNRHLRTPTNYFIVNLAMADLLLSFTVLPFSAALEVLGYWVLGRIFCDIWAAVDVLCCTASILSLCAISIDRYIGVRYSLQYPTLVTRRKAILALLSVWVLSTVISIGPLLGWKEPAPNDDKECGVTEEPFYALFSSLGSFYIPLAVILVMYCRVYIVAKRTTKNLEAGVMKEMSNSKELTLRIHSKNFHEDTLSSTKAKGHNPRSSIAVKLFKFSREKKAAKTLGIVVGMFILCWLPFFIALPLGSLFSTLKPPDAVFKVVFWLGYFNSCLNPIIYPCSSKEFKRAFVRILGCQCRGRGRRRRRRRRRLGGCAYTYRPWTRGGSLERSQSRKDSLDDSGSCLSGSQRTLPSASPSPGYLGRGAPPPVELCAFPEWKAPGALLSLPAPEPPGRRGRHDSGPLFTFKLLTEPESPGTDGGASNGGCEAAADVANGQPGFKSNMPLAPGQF
Method: as §1, with “human adrenergic α1B receptor were” for “human adrenergic α2A receptor were”, “done with a kit of” for “done with kit of”, “EC80 concentrations (50 nM) were” for “EC80 concentrations (270 nM) were”, “by mixing Path Hunter” for “by mixing of Path Hunter”

[4] = 0.1 nM compound, concentration series
[5] = 0.1 μM compound, Protocol Group B

SMILES: Cc1ccc2c(c1)c1c(n2CC(OC(=O)N2CCCC2)c2ccncc2)CCN(C)C1 (single isomer, unassigned) [4b]
IC50 [1]: 6.08 µM
Ki ([2]; Protocol Group B): 0.0036 µM
IC50 [3]: 0.662 µM

SMILES: Cc1ccc2c(c1)c1c(n2CC(C)(O)c2ccc(F)nc2)CCN2CCCC12 (single isomer, unassigned) [6a]
IC50 [1]: 1.79 µM
Ki ([2]; Protocol Group B): 0.0014 µM
IC50 [3]: 0.121 µM

SMILES: Cc1ccc2c(c1)c1c(n2CC(C)(O)c2ccncc2)CCN2CCCC12 (single isomer, unassigned) [13a]
inhibition at 0.1 µM ([1]; 0.1 μM compound): 14%
inhibition at 0.3 µM ([1]; 0.3 μM compound): 21%
IC50 [1]: 2.24 µM
Ki ([2]; Protocol Group B): 0.00185 µM
inhibition at 0.1 µM ([3]; 0.1 μM compound): 49%
inhibition at 0.3 µM ([3]; 0.3 μM compound): 74%
IC50 [3]: 0.1 µM

SMILES: Cc1ccc2c(c1)c1c(n2CC(C)(O)c2ccncc2)CCN2CCCC12 (single isomer, unassigned) [13b]
Percentage inhibition, Adrenergic α2A ([1]; 0.1 μM compound): 23%
Percentage inhibition, Adrenergic α2A ([1]; 0.3 μM compound): 30%
IC50 [1]: 0.806 µM
Ki ([2]; Protocol Group B): 0.00122 µM
Percentage inhibition, Adrenergic α1B ([3]; 0.1 μM compound): 32%
Percentage inhibition, Adrenergic α1B ([3]; 0.3 μM compound): 61%
IC50 [3]: 0.15 µM

SMILES: Cc1ccc2c(c1)c1c(n2CC(O)c2ccncc2F)CCN2CCCC12 (single isomer, unassigned) [14a]
Percentage inhibition, Adrenergic α2A ([1]; 0.1 μM compound): −1%
Percentage inhibition, Adrenergic α2A ([1]; 0.3 μM compound): −2%
Percentage inhibition of ligand binding, Adrenergic α2B, 0.1 nM [2, 4]: −28%
Percentage inhibition of ligand binding, Adrenergic α2B (10 nM) ([2]; Protocol Group B): 60%
inhibition at 0.03 µM ([2]; Protocol Group B): 81%
inhibition at 0.1 µM [2, 5]: 89%
Ki ([2]; Protocol Group B): 0.0065 µM
Percentage inhibition, Adrenergic α1B ([3]; 0.1 μM compound): 49%
inhibition at 0.3 µM ([3]; 0.3 μM compound): 76%
IC50 [3]: 0.099 µM

SMILES: Cc1ccc2c(c1)c1c(n2CC(O)c2ccncc2F)CCN2CCCC12 (single isomer, unassigned) [14b]
Percentage inhibition, Adrenergic α2A ([1]; 0.1 μM compound): 13%
Percentage inhibition, Adrenergic α2A ([1]; 0.3 μM compound): 44%
IC50 [1]: 0.424 µM
Percentage inhibition of ligand binding, Adrenergic α2B, 0.1 nM [2, 4]: 18%
Percentage inhibition of ligand binding, Adrenergic α2B (10 nM) ([2]; Protocol Group B): 98%
Percentage inhibition of ligand binding, Adrenergic α2B (30 nM) ([2]; Protocol Group B): 100%
Percentage inhibition of ligand binding, Adrenergic α2B (0.1 μM) ([2]; 0.1 μM compound, Protocol Group B, 0.1 µM): 96%
Ki ([2]; Protocol Group B): 0.0011 µM
Percentage inhibition, Adrenergic α1B ([3]; 0.1 μM compound): 76%
Percentage inhibition, Adrenergic α1B ([3]; 0.3 μM compound): 86%
IC50 [3]: 0.025 µM

SMILES: OC(Cn1c2c(c3cc(F)ccc31)C1CCCN1CC2)c1ccncc1 (single isomer, unassigned) [18b]
inhibition at 0.1 µM ([1]; 0.1 μM compound): 14%
inhibition at 0.3 µM ([1]; 0.3 μM compound): 18%
IC50 [1]: 2.78 µM
inhibition at 30 pM ([2]; 0.03 nM compound, concentration series, read-out: Percentage inhibition of ligand binding, Adrenergic α2B, 0.03 nM): 19%
inhibition at 0.0001 µM ([2]; 0.1 nM compound, concentration series, read-out: Percentage inhibition of ligand binding, Adrenergic α2B, 0.1 nM): 6%
inhibition at 0.00032 µM ([2]; 0.32 nM compound, concentration series, read-out: Percentage inhibition of ligand binding, Adrenergic α2B, 0.32 nM): 14%
inhibition at 0.001 µM ([2]; 1 nM compound, concentration series, read-out: Percentage inhibition of ligand binding, Adrenergic α2B, 1 nM): 29%
inhibition at 0.0032 µM ([2]; 3.2 nM compound, concentration series, read-out: Percentage inhibition of ligand binding, Adrenergic α2B, 3.2 nM): 78%
inhibition at 0.01 µM ([2]; Protocol Group B): 94%
inhibition at 0.03 µM ([2]; Protocol Group B): 97%
inhibition at 0.1 µM [2, 5]: 100%
Ki ([2]; Protocol Group B): 0.00103 µM
inhibition at 0.1 µM ([3]; 0.1 μM compound): 19%
inhibition at 0.3 µM ([3]; 0.3 μM compound): 46%
IC50 [3]: 0.357 µM

SMILES: Cc1cc(F)c2c(c1)c1c(n2CC(C)(O)c2cccnc2)CCN2CCCC12 (single isomer, unassigned) [79b]
IC50 [1]: 2.67 µM
inhibition at 0.01 µM ([2]; Protocol Group B): 86%
inhibition at 0.03 µM ([2]; Protocol Group B): 95%
inhibition at 0.1 µM [2, 5]: 97%
Ki ([2]; Protocol Group B): 0.00155 µM

Further lines, results first:

IC50 [1]: 0.896 µM
inhibition at 0.01 µM ([2]; Protocol Group B): 91%
inhibition at 0.03 µM ([2]; Protocol Group B): 95%
Ki ([2]; Protocol Group B): 0.0015 µM
SMILES: Cc1cc(F)cc2c3c(n(CC(O)c4ccncc4)c12)CCN1CCCC31 (single isomer, unassigned) [136a]

Percentage inhibition of ligand binding, Adrenergic α2B (30 nM) ([2]; Protocol Group B): 104%
inhibition at 0.03 µM ([2]; Protocol Group B): 97%
SMILES: Cc1ccc2c(c1)c1c(n2CC(O)c2ccncc2)CCN2CCCC12 (single isomer, unassigned) [Compound No. 178d]

IC50 [1]: 0.678 µM
Percentage inhibition of ligand binding, Adrenergic α2B (30 nM) ([2]; Protocol Group B): 96%
inhibition at 0.1 µM [2, 5]: 97%
Ki ([2]; Protocol Group B): 0.00077 µM
SMILES: Cc1cc(F)c2c(c1)c1c(n2CC(C)(O)c2cccnc2)CCN2CCCC12 (centres unmarked) [Compound No. 79a]
